Where two headings read alike, the source gives them in different places.
How the values were obtained:
[1] = test system: Staphylococcus aureus UC 1 128 Pen-Resistant; experiment: MIC, liquid medium dilution; type: cell-based
Description: (§1) The method used was a dilution of a liquid medium where a series of tubes received the same quantity of a sterile nutritive media and increasing doses of the test compounds were placed therein. Then each tube was seeded with a bacterial strain and was incubated for 24 or 48 hours at 37° C. in an oven. The increasing inhibition was determined by transillumination to determine the minimum inhibiting concentration (MIC in μg/ml) and the results are reported in the following Tables.

[2] = test system: Klebsiella pneumoniae Exp. 52 145; experiment: MIC, liquid medium dilution; type: cell-based
Description: as §1

[3] = test system: Salmonella typhimurium 420; experiment: MIC, liquid medium dilution; type: cell-based; conditions: Salmonella enterica
Description: as §1

[4] = test system: Providencia Du 48; experiment: MIC, liquid medium dilution; type: cell-based
Description: as §1

[5] = test system: Bacillus subtilis ATCC 6 633; experiment: MIC, liquid medium dilution; type: cell-based
Description: as §1

[6] = test system: Escherichia Coli Exp. TO26 B6; experiment: MIC, liquid medium dilution; type: cell-based
Description: as §1

[7] = test system: Escherichia Coli Sensitive Tetracycline ATCC 9 637; experiment: MIC, liquid medium dilution; type: cell-based
Description: as §1

[8] = test system: Escherichia Coli Resistant Tetracycline ATCC 11 303; experiment: MIC, liquid medium dilution; type: cell-based
Description: as §1

[9] = test system: Streptococcus pyogenes A 561; experiment: MIC, liquid medium dilution; type: cell-based
Description: as §1

[10] = test system: Enterobacter cloacae 681; experiment: MIC, liquid medium dilution; type: cell-based
Description: as §1

[11] = test system: Staphylococcus aureus ATCC 6 538 Pen-Sensitive; experiment: MIC, liquid medium dilution; type: cell-based
Description: as §1

[12] = test system: Escherichia Coli Resistant Gentamicine, Tobramycine R 55 123 D; experiment: MIC, liquid medium dilution; type: cell-based
Description: as §1

[13] = test system: Streptococcus faecalis 99 F 74; experiment: MIC, liquid medium dilution; type: cell-based; conditions: Enterococcus faecalis
Description: as §1

[14] = test system: Proteus mirabilis (indol-) A 235; experiment: MIC, liquid medium dilution; type: cell-based
Description: as §1

[15] = test system: Staphylococcus aureus exp. n° 54 146; experiment: MIC, liquid medium dilution; type: cell-based
Description: as §1

[16] = test system: Streptococcus faecalis 5 432; experiment: MIC, liquid medium dilution; type: cell-based
Description: as §1

[17] = test system: Proteus vulgaris (indol+) A 232; experiment: MIC, liquid medium dilution; type: cell-based
Description: as §1

[18] = test system: Serratia Resistant Gentamicine 2 532; experiment: MIC, liquid medium dilution; type: cell-based
Description: as §1

[19] = test system: Klebsiella pneumoniae 2 536 Resistant Gentamicine; experiment: MIC, liquid medium dilution; type: cell-based
Description: as §1

[20] = test system: Escherichia coli (T) O26 B6; experiment: Experimental infection with Escherichia coli (T) O26 B6 in mice; type: in vivo; conditions: s. c.
Description: The products of Example 6 and 10 were studied for their activity against an experimental infection of Escherichia coli in groups of 10 male mice weighing about 22 g. The mice received an intraperitoneal injection of 0.5 ml of a 24 hour old culture in a nutritive media of Escherichia coli (T) O26 B6 of the Pasteur Institute diluted 1/5.5 with distilled water. The test product was administered subcutaneously or orally 1 hour and 5 and 24 hours after the infection and the number of dead was determined during 8 days.

[21] = test system: Klebsiella pneumonia 52,145; experiment: Experimental infection with Klebsiella pneumonia in mice (C); type: in vivo; conditions: subcutaneous
Description: The activity of the products of Examples 4 and 6 was studied on an experimental infection of Klebsiella pneumonia in mice. Groups of 10 male mice weighing 21 g were infected by an intraperitoneal injection of 0.5 ml of a culture in nutrive media of Klebsiella pneumonia 52,145 diluted by 1/1000 with distilled water. The products were administered subcutaneously 30 minutes, 4, 8, 24 and 32 hours after the injection and the number of dead mice was determined during 10th days.

[22] = Enterobacter cloacae, 681, 48 h
[23] = Enterococcus faecalis, 5432, 24 h
[24] = Enterococcus faecalis, 5432, 48 h
[25] = Enterobacter cloacae, 681, 24 h, read-out: MIC

CO/N=C(/C(=O)NC1C(=O)N2C(C(=O)O)=C(CSC(C)=O)CSC12)c1csc(N)n1 (stereo not drawn) [Example 17, 3-acetylthiomethyl-7-[{2-(2-amino-4-thiazolyl)-2-methoxyiminoacetyl}amino]-ceph-3-eme-4-carboxylic acid]
0.2 µg/mL: MIC ([9]; A561, 24 h) | MIC ([9]; A561, 48 h)
100 µg/mL: MIC ([1]; UC1, 48 h) | MIC [10, 22]
> 100 µg/mL: MIC ([4]; DU48, 24 h) | MIC ([4]; DU48, 48 h) | MIC ([13]; 99F74, 24 h) | MIC ([13]; 99F74, 48 h) | MIC [16, 23] | MIC [16, 24] | MIC ([17]; 24 h) | MIC ([17]; 48 h) | MIC ([18]; 24 h) | MIC ([18]; 48 h) | MIC ([19]; 24 h) | MIC ([19]; 48 h)
5 µg/mL: MIC ([5]; ATCC6, 24 h) | MIC ([8]; ATCC11, 24 h) | MIC ([8]; ATCC11, 48 h) | MIC ([14]; 24 h)
40 µg/mL: MIC ([1]; UC1, 24 h) | MIC ([2]; EXP.52145, 24 h) | MIC ([2]; EXP.52145, 48 h) | MIC ([3]; 24 h) | MIC ([3]; 48 h) | MIC ([6]; 48 h) | MIC ([7]; ATCC9, 24 h) | MIC ([7]; ATCC9, 48 h) | MIC ([10]; Enterobacter cloacae, 681, 24 h) | MIC ([12]; 24 h) | MIC ([12]; 48 h) | MIC ([14]; 48 h) | MIC ([15]; 24 h) | MIC ([15]; 48 h)
20 µg/mL: MIC ([5]; ATCC6, 48 h) | MIC ([6]; 24 h) | MIC ([11]; ATCC6, 24 h) | MIC ([11]; ATCC6, 48 h)

CO/N=C(\C(=O)NC1C(=O)N2C(C(=O)O)=C(CSc3nnc(C)s3)CS[C@H]12)c1csc(N)n1 (stereo partly drawn) [Example 2, 7-[{2-(2-amino-4-thiazolyl)-2-methoxyiminoacetyl}amino]-3-[(2-methyl-1,3,4-thiadiazol-5-yl)-thiomethyl]-ceph-3-eme-4-carboxylic acid]
0.2 µg/mL: MIC ([8]; ATCC11, 48 h) | MIC ([14]; 24 h) | MIC ([14]; 48 h)
0.05 µg/mL: MIC ([2]; EXP.52145, 24 h)
0.4 µg/mL: MIC ([6]; 24 h) | MIC ([6]; 48 h) | MIC ([12]; 24 h) | MIC ([12]; 48 h)
5 µg/mL: MIC ([4]; DU48, 48 h, read-out: MIC) | MIC ([13]; 99F74, 48 h, read-out: MIC)
40 µg/mL: MIC [10, 25] | MIC ([10]; Enterobacter cloacae, 681, 48 h, read-out: MIC)
1 µg/mL: MIC ([5]; ATCC6, 48 h) | MIC ([11]; ATCC6, 24 h) | MIC ([11]; ATCC6, 48 h) | MIC [16, 23] | MIC ([18]; 24 h) | MIC ([18]; 48 h) | MIC ([19]; 48 h)
0.1 µg/mL: MIC ([2]; EXP.52145, 48 h, read-out: MIC) | MIC ([8]; ATCC11, 24 h, read-out: MIC)
0.6 µg/mL: MIC ([3]; 24 h, read-out: MIC) | MIC ([3]; 48 h) | MIC ([5]; ATCC6, 24 h, read-out: MIC) | MIC ([7]; ATCC9, 24 h, read-out: MIC) | MIC ([7]; ATCC9, 48 h) | MIC ([19]; 24 h, read-out: MIC)
≤ 0.02 µg/mL: MIC ([9]; A561, 24 h, read-out: MIC) | MIC ([9]; A561, 48 h, read-out: MIC)
2 µg/mL: MIC ([1]; UC1, 24 h, read-out: MIC) | MIC ([1]; UC1, 48 h, read-out: MIC) | MIC ([4]; DU48, 24 h, read-out: MIC) | MIC ([13]; 99F74, 24 h, read-out: MIC) | MIC ([15]; 24 h, read-out: MIC) | MIC ([15]; 48 h, read-out: MIC) | MIC ([16]; Enterococcus faecalis, 5432, 48 h, read-out: MIC)

CO/N=C(\C(=O)NC1C(=O)N2C(C(=O)O)=C(CSC(C)=O)CSC12)c1csc(N)n1 (stereo not drawn) [Example 6, 3-acetylthiomethyl-7-[{2-(2-amino-4-thiazolyl)-2-methoxyiminoacetyl}amino]-ceph-3-eme-4-carboxylic acid]
7/10: Mice surviving on the 8th day ([20]; 3 × 0,2 mg)
0.1 µg/mL: MIC ([2]; EXP.52145, 24 h, read-out: MIC) | MIC ([2]; EXP.52145, 48 h, read-out: MIC) | MIC ([8]; ATCC11, 24 h, read-out: MIC) | MIC ([8]; ATCC11, 48 h, read-out: MIC) | MIC ([14]; 48 h, read-out: MIC)
10/10: Mice surviving on the 8th day ([20]; 3 × 0,3 mg) | Mice alive on the 10th day ([21]; 5 × 0,5 mg) | Mice alive on the 10th day ([21]; 5 × 0,25 mg) | Mice alive on the 10th day ([21]; 5 × 1 mg)
4/10: Mice surviving on the 8th day ([20]; 3 × 0,05 mg)
0.4 µg/mL: MIC ([3]; 24 h) | MIC ([3]; 48 h) | MIC ([6]; 24 h) | MIC ([6]; 48 h)
2 µg/mL: MIC ([5]; ATCC6, 48 h) | MIC ([11]; ATCC6, 24 h) | MIC ([11]; ATCC6, 48 h) | MIC ([15]; 24 h) | MIC ([15]; 48 h) | MIC ([18]; 48 h) | MIC ([19]; 48 h)
5/10: Mice surviving on the 8th day ([20]; 3 × 0,1 mg)
0.05 µg/mL: MIC ([14]; 24 h)
4: Mortality after 21 H 30 (number of dead of 10) ([20]; 3 × 0,05 mg)
20 µg/mL: MIC [10, 22]
1 µg/mL: MIC ([5]; ATCC6, 24 h) | MIC ([18]; 24 h) | MIC ([19]; 24 h)
≤ 0.02 µg/mL: MIC ([9]; A561, 24 h, read-out: MIC) | MIC ([9]; A561, 48 h, read-out: MIC)
0.6 µg/mL: MIC ([7]; ATCC9, 24 h, read-out: MIC) | MIC ([7]; ATCC9, 48 h) | MIC ([12]; 24 h, read-out: MIC) | MIC ([12]; 48 h)
10 µg/mL: MIC ([4]; DU48, 24 h, read-out: MIC) | MIC ([4]; DU48, 48 h, read-out: MIC) | MIC [10, 25] | MIC ([17]; 48 h, read-out: MIC)
5 µg/mL: MIC ([1]; UC1, 24 h) | MIC ([1]; UC1, 48 h) | MIC ([13]; 99F74, 24 h) | MIC [16, 23] | MIC [16, 24] | MIC ([17]; 24 h)
2: Mortality after 47 H (number of dead of 10) ([20]; 3 × 0,1 mg)
1: Mortality after 5 H 30 (number of dead of 10) ([20]; 3 × 0,1 mg) | Mortality after 21 H 30 (number of dead of 10) ([20]; 3 × 0,1 mg) | Mortality after 24 H (number of dead of 10) ([20]; 3 × 0,1 mg) | Mortality after 21 H 30 (number of dead of 10) ([20]; 3 × 0,2 mg) | Mortality after 47 H (number of dead of 10) ([20]; 3 × 0,2 mg) | Mortality after 70 H (number of dead of 10) ([20]; 3 × 0,2 mg) | Mortality after 5 J (number of dead of 10) ([20]; 3 × 0,05 mg) | Mortality after 54 H (number of dead of 10) ([20]; 3 × 0,05 mg)
> 40 µg/mL: MIC ([13]; 99F74, 48 h)
